Test results as given in the supplement of paper PMC10307832.

Experiments:
Assay in all cases: relative viability (nuclei count vs DMSO), 5 days (fraction); higher = more cells survive
NCI-H2023 = test system: NCI-H2023
How it was run: (§1)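 Dosing by pin tool came one day after lung cancer cell lines were seeded in 1536-well plates, using either one drug or a fixed anchor-drug dose plus five library-drug doses (not always all listed) in √10 steps. After 5 days, nuclei were counted on 4× images. Relative viability is treated-well nuclei count divided by vehicle-well nuclei count, and values are medians of duplicate plates.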

BEN = test system: BEN
How it was run: as §1

NCI-H3122 = test system: NCI-H3122
How it was run: as §1

NCI-H1666 = test system: NCI-H1666
How it was run: as §1

COR-L 105 = test system: COR-L 105
How it was run: as §1

NCI-H1437 = test system: NCI-H1437
How it was run: as §1

HCC-366 = test system: HCC-366
How it was run: as §1

NCI-H661 = test system: NCI-H661
How it was run: as §1

LK-2 = test system: LK-2
How it was run: as §1

PC-14 = test system: PC-14
How it was run: as §1

EKVX = test system: EKVX
How it was run: as §1

COR-L23 = test system: COR-L23
How it was run: as §1

ABC-1 = test system: ABC-1
How it was run: as §1

NCI-H2009 = test system: NCI-H2009
How it was run: as §1

NCI-H441 = test system: NCI-H441
How it was run: as §1

HARA = test system: HARA
How it was run: as §1

SW 900 = test system: SW 900
How it was run: as §1

NCI-H727 = test system: NCI-H727
How it was run: as §1

201T = test system: 201T
How it was run: as §1

LU99A = test system: LU99A
How it was run: as §1

NCI-H2170 = test system: NCI-H2170
How it was run: as §1

NCI-H1650 = test system: NCI-H1650
How it was run: as §1

CAL-12T = test system: CAL-12T
How it was run: as §1

NCI-H838 = test system: NCI-H838
How it was run: as §1

SMILES: CC(C)Oc1cc(Nc2nc(N[C@@H](C)c3ccc(F)cn3)ncc2Cl)n[nH]1 [AZ23] + COc1cc2c(Oc3ccc(NC(=O)C4(C(=O)Nc5ccc(F)cc5)CC4)cc3F)ccnc2cc1OCCCN1CCOCC1 [Foretinib] (partner 0.25 µM)
- relative viability (NCI-H2023; first compound 0.03162 µM): 0.88
- relative viability (NCI-H2023; first compound 0.3162 µM): 0.924
- relative viability (BEN; first compound 0.01 µM): 0.625
- relative viability (BEN; first compound 0.03162 µM): 0.807
- relative viability (BEN; first compound 0.3162 µM): 0.772
- relative viability (NCI-H3122; first compound 0.01 µM): 1.15
- relative viability (NCI-H3122; first compound 0.03162 µM): 0.918
- relative viability (NCI-H3122; first compound 0.3162 µM): 0.981
- relative viability (NCI-H1666; first compound 0.01 µM): 0.992
- relative viability (NCI-H1666; first compound 0.03162 µM): 1.05
- relative viability (NCI-H1666; first compound 0.3162 µM): 0.918
- relative viability (COR-L 105; first compound 0.01 µM): 1.07
- relative viability (COR-L 105; first compound 0.03162 µM): 1.26
- relative viability (COR-L 105; first compound 0.3162 µM): 0.842
- relative viability (NCI-H1437; first compound 0.01 µM): 1.37
- relative viability (NCI-H1437; first compound 0.03162 µM): 1.35
- relative viability (NCI-H1437; first compound 0.3162 µM): 1.4
- relative viability (HCC-366; first compound 0.01 µM): 1.13
- relative viability (HCC-366; first compound 0.03162 µM): 0.995
- relative viability (HCC-366; first compound 0.3162 µM): 0.933
- relative viability (NCI-H661; first compound 0.01 µM): 1.15
- relative viability (NCI-H661; first compound 0.03162 µM): 1.06
- relative viability (NCI-H661; first compound 0.3162 µM): 1
- relative viability (LK-2; first compound 0.01 µM): 1.15
- relative viability (LK-2; first compound 0.03162 µM): 1.38
- relative viability (LK-2; first compound 0.3162 µM): 0.706
- relative viability (PC-14; first compound 0.01 µM): 1.1
- relative viability (PC-14; first compound 0.03162 µM): 1
- relative viability (PC-14; first compound 0.3162 µM): 1.13
- relative viability (EKVX; first compound 0.01 µM): 0.782
- relative viability (EKVX; first compound 0.03162 µM): 0.988
- relative viability (EKVX; first compound 0.3162 µM): 0.565
- relative viability (COR-L23; first compound 0.01 µM): 1.09
- relative viability (COR-L23; first compound 0.03162 µM): 1.02
- relative viability (COR-L23; first compound 0.3162 µM): 1.11
- relative viability (ABC-1; first compound 0.01 µM): 1.03
- relative viability (ABC-1; first compound 0.03162 µM): 1.04
- relative viability (ABC-1; first compound 0.3162 µM): 1.02
- relative viability (NCI-H2009; first compound 0.01 µM): 1.23
- relative viability (NCI-H2009; first compound 0.03162 µM): 1.26
- relative viability (NCI-H2009; first compound 0.3162 µM): 1.23
- relative viability (NCI-H441; first compound 0.01 µM): 1.52
- relative viability (NCI-H441; first compound 0.03162 µM): 0.854
- relative viability (NCI-H441; first compound 0.3162 µM): 0.967
- relative viability (HARA; first compound 0.03162 µM): 1.04
- relative viability (HARA; first compound 0.3162 µM): 0.783
- relative viability (SW 900; first compound 0.01 µM): 1.04
- relative viability (SW 900; first compound 0.03162 µM): 0.844
- relative viability (SW 900; first compound 0.3162 µM): 0.775
- relative viability (NCI-H727; first compound 0.01 µM): 0.789
- relative viability (NCI-H727; first compound 0.03162 µM): 0.852
- relative viability (NCI-H727; first compound 0.3162 µM): 1.1
- relative viability (201T; first compound 0.03162 µM): 1.28
- relative viability (201T; first compound 0.3162 µM): 1.13
- relative viability (LU99A; first compound 0.01 µM): 0.799
- relative viability (LU99A; first compound 0.03162 µM): 0.846
- relative viability (LU99A; first compound 0.3162 µM): 0.872
- relative viability (NCI-H2170; first compound 0.01 µM): 1.16
- relative viability (NCI-H2170; first compound 0.03162 µM): 0.98
- relative viability (NCI-H2170; first compound 0.3162 µM): 0.849
- relative viability (NCI-H1650; first compound 0.03162 µM): 1.51
- relative viability (NCI-H1650; first compound 0.3162 µM): 1.23
- relative viability (CAL-12T; first compound 0.03162 µM): 1.14
- relative viability (CAL-12T; first compound 0.3162 µM): 0.884
- relative viability (NCI-H838; first compound 0.01 µM): 1.24
- relative viability (NCI-H838; first compound 0.03162 µM): 1.14
- relative viability (NCI-H838; first compound 0.3162 µM): 0.994
